In US11180475B2, “Crystal form I of a 5-aminopyrazole carboxamide compound as BTK inhibitor” (SinoMab BioScience Limited, priority 2017, dated 2021):

What was measured:
[1] = molecular target: hERG (Homo sapiens, UniProt Q12809); test: hERG binding assay (Dofetillide method); conditions: read-out: IC50 for hERG inhibition
Description: The IC50 value of a compound for hERG inhibition can be determined according to the method described in the patent application US20050214870 A1.

[2] = molecular target: Recombinant Btk (Homo sapiens, UniProt Q06187); test: Kinase activity (BTK) inhibition assay, TR-FRET; assay type: biochemical; conditions: read-out: IC50, inhibitory effect on BTK kinase activity
Recombinant Btk, sequence (Q06187 whole entry): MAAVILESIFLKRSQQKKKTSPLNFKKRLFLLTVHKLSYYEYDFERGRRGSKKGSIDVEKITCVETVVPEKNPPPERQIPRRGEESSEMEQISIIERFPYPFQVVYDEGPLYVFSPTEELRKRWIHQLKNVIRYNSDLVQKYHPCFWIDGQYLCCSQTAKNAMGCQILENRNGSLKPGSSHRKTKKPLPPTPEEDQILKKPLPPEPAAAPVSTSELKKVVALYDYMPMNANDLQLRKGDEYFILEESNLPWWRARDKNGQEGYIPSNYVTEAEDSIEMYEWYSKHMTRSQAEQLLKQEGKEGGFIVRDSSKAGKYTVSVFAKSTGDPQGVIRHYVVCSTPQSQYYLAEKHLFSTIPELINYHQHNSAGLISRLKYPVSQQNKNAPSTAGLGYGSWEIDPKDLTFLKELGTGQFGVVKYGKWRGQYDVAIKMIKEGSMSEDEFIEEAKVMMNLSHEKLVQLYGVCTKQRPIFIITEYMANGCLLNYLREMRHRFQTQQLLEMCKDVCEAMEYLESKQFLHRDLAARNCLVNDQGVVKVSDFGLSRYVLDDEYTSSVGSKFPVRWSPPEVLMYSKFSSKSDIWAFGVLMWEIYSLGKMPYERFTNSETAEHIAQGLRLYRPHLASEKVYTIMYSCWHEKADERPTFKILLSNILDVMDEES
Procedure: The inhibitory effects of compound (R)-5-amino-3-(4-((5-chloropyridin-2-yl)oxy)phenyl)-1-(4-cyano-4-azaspiro[2.5]oct-6-yl)-1H-pyrazole-4-carboxamide (I) on BTK kinase activity were tested in an assay based on a time resolved fluorescence resonance energy transfer (TR-FRET) method. Recombinant Btk was pre-incubated with the compound disclosed herein in an assay buffer containing 50 mM Tris pH 7.4, 10 mM MgCl2, 2 mM MnCl2, 0.1 mM EDTA, 1 mM DTT, 20 nM SEB, 0.1% BSA, 0.005% tween-20 at room temperature for 1 hour. The reaction was initiated by the addition of ATP (at the ATP Km concentration) and the peptide substrate (Biotin-[…]-NH2). After incubation at room temperature for 1 hour, an equal volume of stop solution containing 50 mM HEPES pH 7.0, 800 mM KF, 20 mM EDTA, 0.1% BSA, p-Tyr66 antibody linked with Eu cryptate and streptavidin-labeled XL665 was added to stop the reaction. The plate was incubated at room temperature for an additional hour and then the TR-FRET signal was read on a BMG PHERAstar FS instrument (ex337 nm, em 620 nm/665 nm). Based on the ratio of the signal of fluorescence at 615 nm to 665 nm, the residual enzyme activity was calculated with an increased compound concentration. IC50 of each compound was obtained by fitting the data to the four-parameter equation of Graphpad Prism software.

[3] = system: diffuse large B-cell lymphoma cell line TMD-8; test: Pharmacodynamic assay, TMD-8 xenograft; assay type: in vivo; conditions: NOD.SCID mice, p.o. daily for 21 days
Procedure: Severe immunodeficiency NOD.SCID mice were purchased from Beijing Vital River Laboratory Animal Technology Co., Ltd., and were housed in SPF grade animal room. After TMD-8 cells were cultured to the sufficient amount, the cells were collected by centrifugation and washed twice with PBS. Finally, the cells were resuspended in serum-free RPMI 1640 medium and Matrigel (1:1 v/v). 0.2 ml of cell suspension was injected subcutaneously on the right flank of each mouse using 1 ml syringe and 25G syringe needle. The tumor size was measured with a caliper after about one week post injection. The tumor volume was calculated according to the following formula: tumor volume=(length×width^2)/2. When the tumor volume reached about 100-200 mm^3, the mice were grouped and p.o. administered daily for 21 days.

[4] = Stability study in liver microsomes; assay type: in vitro ADME, human, dog, rat, and mouse; conditions: 60 minutes incubation, 37° C., liver microsomes of various species
Procedure: 1. Compound (R)-5-amino-3-(4-((5-chloropyridin-2-yl)oxy)phenyl)-1-(4-cyano-4-azaspiro[2.5]oct-6-yl)-1H-pyrazole-4-carboxamide (I) was dissolved in acetonitrile to prepare a stock solution having a concentration of 0.5 mM.
2. 2 μL of stock solution was added to a 1.5 ml centrifuge tube, and then 148 μL of phosphate buffer (100 mM, pH 7.4) and 10 μL of liver microsome suspension (the protein concentration was 20 mg/ml) [BD Gentest] were added. The liver microsomes were derived from the species of human, dog, rat, and mouse; The control group was added with 158 μL of phosphate buffer (100 mM, pH 7.4).
3. The mixture obtained in step 2 was pre-incubated in a 37° C. water bath for 3 minutes; then 40 μL of NADPH generating system (containing NADP+: 6.5 mM, glucose 6-phosphate: 16.5 mM, MgCl2: 16.5 mM, glucose 6-phosphate dehydrogenase: 2 U/ml) was added to initiate the reaction. The reaction system was incubated in a 37° C. water bath for 1 hour.
4. After the reaction was carried out for 1 hour, the centrifuge tube was removed from the water bath, and the reaction was terminated by adding 400 μL of acetonitrile, followed by vortexing for 3 minutes. […]
6. After 60 minutes of incubation, the percentage of remaining drug in the incubation system was calculated as follows: Remaining Drug (%)=Cr/C0×100%

[5] = system: B cells in human whole blood; test: Inhibition assay on human whole blood B cells (CD69); assay type: cell-based; conditions: B-cell, anti-human IgM F(ab')2 stimulation 20 hours, read-out: IC50, inhibitory activity on B cells in human whole blood
Procedure: Human whole blood (hWB) was obtained from healthy volunteers and blood was collected by venipuncture into a heparin sodium-anticoagulant Vacutainer tube. Test compounds were diluted 10 times in PBS to the required initial drug concentration), followed by three-fold serial dilutions with 10% DMSO in PBS to obtain a 9-point dose response curve. 5.5 μL of each diluted compound was added to the aiil 96-well V-bottom plate in duplicate; 5.5 μL of 10% DMSO in PBS was added to control and non-stimulated wells. Human whole blood (100 μL) was added to each well, and after mixing, the plates were incubated for 30 minutes at 37° C. and in 5% CO2, 100% humidity. An anti-human IgM F(ab′)2 (Southern Biotech) (10 μL of 500 μg/mL solution, 50 μg/mL final concentration) was added to each well (except for non-stimulated wells) with vortexing, and the plate was further incubated for another 20 hours. After 20-hour incubation, samples were incubated with 20 μL of fluorescent probe-labeled APC mouse anti-human CD69 (BD Pharmingen) for 30 minutes at 37° C., 5% CO2, 100% humidity. Induced controls, unstained, and single-stained samples were included for compensation and initial voltage settings. […] Results were initially analyzed using FACS analysis software (Flow Jo). The IC50 values were then calculated using XLfit v3, Equation 201.

[6] = system: T cells; test: T cell inhibition assay (CD69, flow cytometry); assay type: cell-based; conditions: Homo sapiens, 1 hour exposure, washed, anti-CD3/CD28 beads 18 hours, read-out: IC50, inhibitory activity on T cells
Procedure: T cells were obtained by purification of healthy donor blood through negative selections using the RosetteSep Human T Cell Enrichment Mix. Cells were plated in a growth medium (10% RPMI+10% fetal bovine serum) and the inhibitor was added at specified concentrations. After incubating for 1 hour at 37° C., the cells were washed three times, and each wash was used for 10-fold dilution in the growth medium. The cells were then stimulated with anti-CD3/CD28 coated beads (bead/cell ratio 1:1) for 18 hours at 37° C. Cells were subsequently stained with an anti-CD69-PE antibody and analyzed by flow cytometry using standard conditions. According to the above experimental methods, compound (R)-5-amino-3-(4-((5-chloropyridin-2-yl)oxy)phenyl)-1-(4-cyano-4-azaspiro[2.5]oct-6-yl)-1H-pyrazole-4-carboxamide (I) has very low or no inhibitory activity on T cells, with an IC50 values higher than 4000 nM.

[7] = system: five CYP450 enzymes in human liver microsomes; test: Inhibition of CYP enzymes, cocktail probe substrates; assay type: in vitro ADME; conditions: CYP1A2, CYP2D6, CYP2C9, CYP2C19, CYP3A4
Procedure: METHOD: This experiment simultaneously determined the inhibitory effects of a compound on five CYP450 enzymes in human liver microsomes using the cocktail probe substrates approach. The human microsomes were from BD Gentest.
The reaction was carried out in 100 mM of phosphate buffer, with a total volume of 200 μL. The concentration of microsomes in the reaction system was 0.25 mg/mL, and the concentration of the test compound was 20 μM, 6.67 μM, 2.22 μM, 0.74 μM, and 0.25 μM. The specific probe substrates and concentration were phenacetin (CYP1A2) 40 μM, dextromethorphan (CYP2D6) 5 μM, diclofenac (CYP2C9) 10 μM, S-mephenytoin (CYP2C19) 40 μM, testosterone (CYP3A4) 80 μM, respectively. The mixture was pre-incubated in a 37° C. thermostatic shaker for 5 minutes, and the NADPH-generating system (containing 1.3 mM NADP+, 3.3 mM glucose 6-phosphate, […] glucose 6-phosphate dehydrogenase, 3.3 mM MgCl2) was added to start the reaction. After incubation for 45 minutes, the reaction was stopped by adding an equal volume of acetonitrile. The tube was vortexed and centrifuged at 13,000 rpm. The resulting supernatant was subjected to LC-MS-MS to determine the amount of produced metabolites. […] The final result of this experiment is the calculated half inhibitory concentration IC50 value.

[8] = system: normal human B cells; test: B cell inhibition assay (CD69, flow cytometry); assay type: cell-based; conditions: 1 hour exposure, washed off, IgM F(ab')2 stimulation 18 hours, read-out: IC50, inhibitory activity on B cells
Procedure: Temporary exposure to a BTK inhibitor in vitro is sufficient to inhibit B cell activation in normal human B cells.
B cells were obtained by purification from healthy donor blood through negative selection using the RosetteSep human B Cell Enrichment Mix. Cells were plated in a growth medium (10% RPMI+10% fetal bovine serum) and the inhibitor was added at specified concentrations. After incubation at 37° C. for 1 hour, the cells were washed three times, and each wash was used for 8-fold dilution in the growth medium. The cells were then stimulated with 10 μg/mL IgM F(ab′)2 at 37° C. for 18 hours. Cells were subsequently stained with an anti-CD69-PE antibody and analyzed by flow cytometry using standard conditions.

[9] = Pharmacokinetics in rats; assay type: in vivo; conditions: rat, plasma, oral; male SD rats, p.o. 10 mg/kg vs i.v. 2 mg/kg
Procedure: 1. Male SD rats (HFK) were acclimatized in the laboratory for 7 days after arrival.
2. […], 3 animals in each group. One group was dosed by oral gavage (p.o.), and the other group was dosed by tail vein injection (i.v.). Rats in the p.o. group were fasted overnight before drug administration.
3. After drug administration, blood samples were collected from the rats via the posterior orbital venous plexus approach at the following time points: I.V.: (before drug administration), 0.08 hours, 0.25 hours, 0.5 hours, 1 hour, 2 hours, 4 hours, 8 hours, 24 hours; P.O.: 0.08 hour, 0.25 hour, 0.5 hour, 1 hour, 2 hours, 4 hours, 8 hours, 24 hours. About 300 μl of blood were collected at each collection time point.
4. The collected blood samples were centrifuged at 12000 rpm for 5 minutes at 4° C., and then the upper plasma samples were collected and stored in a refrigerator at −20° C.
6. […]
The pharmacokinetic parameters were calculated using the pharmacokinetic professional software WinNonlin [Model: Phoenix™ WinNonlin® 6.1; Manufacturer: Pharsight Corporation]. […]

hERG, sequence (Q12809 whole entry): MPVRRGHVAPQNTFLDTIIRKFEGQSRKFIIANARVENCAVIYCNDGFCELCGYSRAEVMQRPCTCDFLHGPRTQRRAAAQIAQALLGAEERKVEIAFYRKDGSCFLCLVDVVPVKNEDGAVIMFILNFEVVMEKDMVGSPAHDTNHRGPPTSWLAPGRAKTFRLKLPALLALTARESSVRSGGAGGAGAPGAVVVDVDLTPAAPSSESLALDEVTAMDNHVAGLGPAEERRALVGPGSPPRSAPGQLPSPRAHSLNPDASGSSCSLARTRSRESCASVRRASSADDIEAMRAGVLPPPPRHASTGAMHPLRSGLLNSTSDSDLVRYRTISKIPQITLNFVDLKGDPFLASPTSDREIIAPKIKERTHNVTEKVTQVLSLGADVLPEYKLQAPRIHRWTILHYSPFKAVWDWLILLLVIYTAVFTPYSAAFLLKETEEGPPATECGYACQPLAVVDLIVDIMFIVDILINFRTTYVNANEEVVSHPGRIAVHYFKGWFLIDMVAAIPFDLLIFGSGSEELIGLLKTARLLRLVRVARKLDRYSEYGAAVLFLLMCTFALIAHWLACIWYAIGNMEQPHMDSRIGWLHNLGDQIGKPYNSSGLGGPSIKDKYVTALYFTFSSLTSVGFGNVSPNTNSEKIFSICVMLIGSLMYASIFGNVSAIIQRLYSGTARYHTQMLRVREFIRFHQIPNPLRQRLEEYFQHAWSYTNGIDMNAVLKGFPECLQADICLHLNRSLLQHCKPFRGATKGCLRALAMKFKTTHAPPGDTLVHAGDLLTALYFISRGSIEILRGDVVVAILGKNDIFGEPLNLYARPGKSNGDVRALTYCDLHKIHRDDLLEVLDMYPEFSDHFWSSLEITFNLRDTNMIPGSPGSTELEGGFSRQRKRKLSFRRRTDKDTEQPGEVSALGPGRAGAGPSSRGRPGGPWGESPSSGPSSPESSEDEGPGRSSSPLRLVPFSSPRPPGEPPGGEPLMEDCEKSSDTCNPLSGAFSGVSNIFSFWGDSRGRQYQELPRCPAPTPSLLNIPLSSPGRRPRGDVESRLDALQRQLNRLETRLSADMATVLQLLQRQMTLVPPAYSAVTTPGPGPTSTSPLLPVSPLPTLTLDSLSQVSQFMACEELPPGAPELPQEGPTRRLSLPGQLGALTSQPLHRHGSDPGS

## N#CN1C[C@H](n2nc(-c3ccc(Oc4ccc(Cl)cn4)cc3)c(C(N)=O)c2N)CCC12CC2 [Compound I, (R)-5-amino-3-(4-((5-chloropyridin-2-yl)oxy)phenyl)-1-(4-cyano-4-azaspiro[2.5]oct-6-yl)-1H-pyrazole-4-carboxamide]
[1]
  IC50: > 1000 nM
[2]
  IC50: < 100 nM
[3]
  inhibition of TMD-8 tumor growth in vivo: significantly inhibited the growth
[4]
  Remaining Drug (%), residual percentage in liver microsomes: > 30%
[5]
  IC50: < 200 nM
[6]
  IC50: > 4000 nM
[7]
  inhibitory effect on various CYP enzymes: very low or no inhibitory effect
[8]
  IC50: < 10 nM
[9]
  bioavailability: > 40%
